Assay results reported in patent US7192981B2, “3,4-dihydroxyhydrocinnamic acid derivative” (Bionutrigen Co., Ltd., priority 2005, dated 2007).

Tested on: isolated rat epididymal adipocytes
Test: Glucose transport assay (2-DOG uptake)
Type: cell-based
Details: for glucose transport at higher doses: rat adipocytes, 4 h

Compound | glucose transport at higher doses | glucose transport (insulin at the indicated concentrations, 30 min)
CN(C)C(=N)N=C(N)N [metformin, reference compound] | remained unchanged | –
insulin | – | increased glucose transport in a dose-dependent manner
COc1ccc(Cl)cc1C(=O)NCCc1ccc(S(=O)(=O)NC(=O)NC2CCCCC2)cc1 [glyburide, reference compound] | decreased | –
